The text below walks through data of US9719981B2, “RAC1 inhibitors for the treatment of alport glomerular disease” (Father Flanagan's Boys' Home, priority 2012, dated 2017).

For test [1], the system named is FAK. Nature of the test: pFAK397 western blot in cultured podocytes -/+ TAE226. Format: cell-based, mouse. The following applies: 20 μM TAE226, podocytes on placental laminin. How it is done: Basal Lamina and −/+ TAE226 pFAK^397 Western Blots. 10 day differentiated GEC's were cultured in 0.5% FCS for 2 days and plated onto tissue culture dishes previously coated with 50 μg/ml Collagen Type 1 Rat Tail (BD Biosciences) and 2 μg/cm^2 Placental Laminin (Sigma) in 0.1% BSA containing media. For Basal Lamina experiment, additional dishes were coated with Collagen Type 1 and 1.25 μg/cm^2 EHS Laminin (BD Biosciences) or […] Merosin (Chemicon, Temecula Calif.). For −/+ TAE266 experiment, 20 μM TAE226 was included in the media. Protein was collected 15 hours later in M-PER (Thermo Scientific) as above and Western Blot run as described below.
(§1) Immunoblotting. Ten to fifteen micrograms, of cellular protein, was resolved in a 10% SDS-PAGE and then electrotransfered to PVDF membrane. The membranes were cut in half and the upper half (250 kDa to 75 kDa) used for pFAK/tFAK immunoblotting while the bottom half used for β-actin immunoblotting (loading control). Conditions for pFAK detection: the membrane was blocked in milk blocking solution (5% milk containing 0.2% Tween-20 in PBS) for 1 hour at room temperature with constant shaking and incubated overnight at 4° C. with anti-pFAK 1:1,000 in BSA blocking solution (1% BSA containing 0.2% Tween-20 in PBS). […]
On the technique in general: Immunoblotting shows a protein as a band on a membrane.

The next test deals with cultured podocytes. Nature of the test: Real time qRT-PCR for MMP transcripts in cultured podocytes, static and stretched. Format: cell-based, mouse. The conditions noted are these: relative to untreated cells. How it is done: NF-κB Staining and −/+ Stretch pFAK397 Western Blot. GEC's were differentiated under “non-permissive” conditions for ten days, plated onto Bioflex 6-well plates (Flexcell International, Hillsborough, N.C.) coated with Collagen Type 1 (rat tail, BD Biosciences, Bedford, Mass.)/Placental Laminin (Sigma), cultured for two days in 0.5% FCS and exposed to mechanical strain for 4 hours, as previously described (Meehan et al., 2009, Kidney Int; 76: 968-976). For NF-κB Staining, cells were fixed with 2% PFA, 4% Sucrose in PBS for 10 minutes, permeabilized with 0.3% Triton, as previously described (Rao et al., 2006, Am J Pathol; 169: 32-46) incubated with αNF-κB P65 antibody at 1:50 overnight at 4° C., incubated with anti-rabbit secondary antibody at 1:750 for two hours at room temperature, gaskets were cut out, mounted on slides with […]™ (Vector Laboratories, Burlingame, Calif.) and cover slipped. For −/+ Stretch pFAK Western, protein was collected in M-PER (Thermo Scientific) as above and Western Blot run as described below.
NF-κB SN50, Inhibitor Peptide Treatment, GEC's were cultured as described above, 10 μM NF-κB SN50 Inhibitor Peptide (EMD Millipore, Billerica, Mass.) was added (and after one additional hour) exposed to 20 hours of mechanical strain and RNA collected as previously described (Meehan et al., 2009, Kidney Int; 76: 968-976).
Real time qRT-PCR. Total RNA was reverse transcribed using […]® III (Invitrogen, Life Technologies, Grand Island, N.Y.) with Oligo(dT)20 Primer (Invitrogen). The real time PCR was carried out using TAQMAN® Gene Expression Master Mix (Applied Biosystems, Life Technologies, Grand Island, N.Y.), and quantified using STEPONEPLUS™ Real-Time PCR System (Applied Biosystems). Samples were normalized to Mouse GAPDH Endogenous Control VIC® Probe (Applied Biosystems catalogue #4352339E) which was run alongside MMP-9 (Catalog #4331182, ID# Mm00442991_m1), MMP-10 (Catalog #4331182, ID# Mm00444630_m1), MMP-12 (Catalog #4331182, ID# Mm00500554_m1), IL-6 (Catalog #4331182, ID# Mm00446190_m1), NFKbia (Catalog #4331182, ID# Mm00477798_m1), and FAK (Catalog #4331182, ID# Mm00433209_m1) TAQMAN® Gene Expression Assay Probes (Applied Biosystems). Samples were run in triplicate with a final reaction volume of 20 ul with the following cycling parameters: 50° C. for 2 min, 95° C. for 10 min, followed by 40 cycles of a two-step PCR consisting of 95° C. for 15 s and 60° C. for 1 min. Relative changes in gene expression were determined by calculating the fold change using the comparative CT method of 2^−ΔΔCT. Data are expressed as the mean with standard deviation for at least four independent RNA samples per data point.
On the technique in general: Real-time PCR tracks product formation cycle by cycle.

The subject of test [2] is FAK. Description: pFAK397 western blot in primary mesangial cells with TAE226. The format is cell-based, mouse. The following applies: 0.5 and 1.0 μM TAE226, five hours. How it is done: Primary Mesangial Cells were derived and characterized as previously described (Cosgrove et al., 2008, Am J Pathol; 172: 761-773). Three independent Transwell Migration Assays were performed using 0.5 μM TAE226 as previously described. For pFAK Western Blot^397, cells were maintained on 1% FCS-containing media for two days, overnight in 0.1% BSA (Fraction V, Roche Diagnostics, Mannheim, Germany) and TAE226 added to 0.5 and 1.0 μM. After five hours protein was collected in M-PER™ (Thermo Scientific, Rockford, Ill.) containing Protease Inhibitor Cocktail P8340 at 1:100 (Sigma, St. Louis, Mo.), 5 mM Sodium Fluoride (Sigma), and 2 mM Sodium Orthovanadate (Sigma) and Western Blots run as described below.
as §1

The test system of another test is glomerular injury. The conditions noted are these: lipopolysaccharide or anti-GBM antibody administration; cited from earlier work.

For the molecule `CNC(=O)c1ccccc1Nc1nc(Nc2ccc(N3CCOCC3)cc2OC)ncc1Cl` [TAE226], in the test with FAK [1], the “Activation state of FAK (pFAK397) in cultured podocytes” value was “reduced”. In the test on cultured podocytes (biomechanical stretch), the “MMP-10 message levels in stretched podocytes” value is “reduced” and the “MMP-12 message levels in stretched podocytes” value was “reduced”. Moreover, in the test with cultured podocytes (static conditions), the “MMP-10 expression in podocytes” value was “reduced expression” and the “MMP-12 expression in podocytes” value is recorded as “reduced expression”. In addition, in the test on FAK [2], the “pFAK activation in mesangial cells” value is “blocked pFAK activation in a dose-dependent manner”. Besides, the “Protection against glomerular injury” value with glomerular injury is “protect against glomerular injury”.
